From PMC10981727, “Design, synthesis and bioactivity study on oxygen-heterocyclic-based pyran analogues as effective P-glycoprotein-mediated multidrug resistance in MCF-7/ADR cell” (Scientific Reports, 2024)
Where two headings read alike, the source gives them in different places.

What was measured:
HeLa [1] = test: MTT viability assay, HeLa; format: cell-based; details: 24 h incubation, mean ± standard error
Method: (§1) Using concentrations ranging from 0 to 100 μM against PC-3, SKOV-3, and HeLa cancerogenic cell lines, target compounds 4a–l were assessed for their anticancer activities[53] and compared with the commercially available Vinblastine and Doxorubicin. […] The compounds with the greatest cytotoxic activity against the cancerous cell lines PC-3, SKOV-3, and HeLa were 4a–c, 4g, and 4h. […] We selected the cytotoxic active compounds 4a–c, 4g, and 4h to be evaluated against MCF-7/ADR cancerogenic and HFL-1 and WI-38 non-cancerogenic cell lines (Figs. 7, 8 and Table 1).
(§2) The tumor cell lines (PC-3, SKOV-3, and HeLa), resistant cell strains (MCF-7/ADR) and the normal cell lines, (HFL-1, WI-38) were obtained from the American Type Culture Collection (ATCC, Rockville, MD, USA).
(§3) The tumor cell lines were suspended in medium at concentration 5 × 10^4 cells well^−1 in Corning® 96-well tissue culture plates and then incubated for 24 h. The tested compounds with concentrations ranging from 0 to 100 μM were then added into 96-well plates (six replicates) to achieve six different concentrations for each compound. Six vehicle controls with media or 0.5% DMSO were run for each 96 well plate as a control. After incubating for 24 h, the numbers of viable cells were determined by the MTT test[53]. Briefly, the media was removed from the 96 well plates and replaced with 100 μl of fresh culture RPMI 1640 medium without phenol red then 10 μl of the 12 mM MTT stock solution (5 mg of MTT in 1 ml of PBS) to each well including the untreated controls. The 96-well plates were then incubated at 37 °C and 5% CO2 for 4 h. An 85-μl aliquot of the media was removed from the wells, and 50 μl of DMSO was added to each well and mixed thoroughly with the pipette and incubated at 37 °C for 10 min. Then, the optical density was measured at 590 nm with the microplate reader (Sunrise, TECAN, Inc, USA) to determine the number of viable cells and the percentage of viability was calculated as […] where ODt is the mean optical density of wells treated with the tested sample and ODc is the mean optical density of untreated cells. The relation between surviving cells and drug concentration is plotted to get the survival curve of each tumor cell line after treatment with the specified compound. The 50% inhibitory concentration (IC50), the concentration required to cause toxic effects in 50% of intact cells, was estimated from graphic plots of the dose response curve for each concentration.

PC-3 [2] = test: MTT viability assay, PC-3; format: cell-based; details: for IC50: MTT, 24 h incubation, mean ± standard error
Method: as §1, §2, §3

SKOV-3 = test: MTT viability assay, SKOV-3; format: cell-based; details: for IC50: MTT, 24 h incubation, mean ± standard error; for times more potency than Doxorubicin, SKOV-3 / times more potency than Vinblastine, SKOV-3: ratio of IC50 values
Method: as §1, §2, §3

human fetal lung (HFL-1) = test: MTT viability assay, normal HFL-1; format: cell-based; details: HFL1, normal cell line, 24 h, mean ± standard error
Method: as §1, §2, §3

MCF-7/ADR = test: MTT viability assay, resistant MCF-7/ADR; format: cell-based; details: for IC50: Homo sapiens, NCI/ADR-RES, MTT, 24 h exposure, mean ± standard error; for activity against MCF-7/ADR cell (in words): with regard to Doxorubicin
Method: as §1, §2, §3

[3] = test system: human diploid fibroblasts (WI-38); test: MTT viability assay, normal WI-38; format: cell-based; details: normal cell line, 24 h, mean ± standard error
Method: as §1, §2, §3

MCF-7 = test system: MCF-7; design: method as in PMID 31586716; details: Fig. 5, 9-Br first generation derivatives; cited from earlier work
HepG-2 = test system: HepG-2; design: method as in PMID 31586716; details: Fig. 5, 9-Br first generation derivatives; cited from earlier work
HCT-116 = test system: HCT-116; design: method as in PMID 31586716; details: Fig. 5, 9-Br first generation derivatives; cited from earlier work
MDA-MB-231 = test system: MDA-MB-231; design: method as in PMID 34670333; details: Fig. 5, 9-OMe second generation derivatives; cited from earlier work
HeLa [4] = test system: HeLa; design: method as in PMID 34670333; details: Fig. 5, 9-OMe second generation derivatives; cited from earlier work
MIA PaCa-2 = test system: MIA PaCa-2; design: method as in PMID 34670333; details: Fig. 5, 9-OMe second generation derivatives; cited from earlier work
PC-3 [5] = test system: PC-3; design: method as in PMID 34670333; details: Fig. 5, 9-OMe second generation derivatives; cited from earlier work
A549 = test system: A549; design: method as in PMID 34670333; details: Fig. 5, 9-OMe second generation derivatives; cited from earlier work
RPMI 7951 = test system: RPMI 7951; design: method as in PMID 34670333; details: Fig. 5, 9-OMe second generation derivatives; cited from earlier work

Compound: N#CC1=C(N)Oc2ccc3ccc(O)cc3c2C1c1ccc(Cl)cc1 (stereo not drawn) [4d, 3-Amino-1-(4-chlorophenyl)-9-hydroxy-1H-benzo[f]chromene-2-carbonitrile]
- IC50 (HeLa [1]; Homo sapiens, HeLa): 21.9 ± 1.1 µM
- IC50 (PC-3 [2]; Homo sapiens, PC-3): 8.8 ± 0.7 µM
- melting point: 285 to 286 °C
- IC50 (SKOV-3; Homo sapiens, SK-OV-3): 35.6 ± 0.4 µM

Compound: N#CC1=C(N)Oc2ccc3ccc(O)cc3c2C1c1ccc(Br)cc1 (stereo not drawn) [4e, 3-Amino-1-(4-bromophenyl)-9-hydroxy-1H-benzo[f]chromene-2-carbonitrile]
- IC50 (HeLa [1]; Homo sapiens, HeLa): 7.9 ± 1.6 µM
- IC50 (PC-3 [2]; Homo sapiens, PC-3): 8.8 ± 1.2 µM
- melting point: 285 to 286 °C
- IC50 (SKOV-3; Homo sapiens, SK-OV-3): 4.8 ± 1.1 µM

Compound: Cc1ccc(C2C(C#N)=C(N)Oc3ccc4ccc(O)cc4c32)cc1 (stereo not drawn) [4f, 3-Amino-1-(4-methylphenyl)-9-hydroxy-1H-benzo[f]chromene-2-carbonitrile]
- IC50 (HeLa [1]; Homo sapiens, HeLa): 33.7 ± 1.3 µM
- IC50 (PC-3 [2]; Homo sapiens, PC-3): 37.2 ± 1.3 µM
- melting point: 258 to 259 °C
- IC50 (SKOV-3; Homo sapiens, SK-OV-3): 35.2 ± 1.3 µM

Compound: COc1ccc(C2C(C#N)=C(N)Oc3ccc4ccc(O)cc4c32)cc1 (stereo not drawn) [4g, 3-Amino-1-(4-methoxyphenyl)-9-hydroxy-1H-benzo[f]chromene-2-carbonitrile]
- IC50 (human fetal lung (HFL-1)): 77.5 ± 0.1 µM
- IC50 (MCF-7/ADR): 30.5 ± 0.7 µM
- activity against MCF-7/ADR cell (in words) (MCF-7/ADR): inactive
- IC50 [3]: 84.5 ± 1.1 µM
- IC50 (HeLa [1]; Homo sapiens, HeLa): 0.9 ± 1.5 µM
- IC50 (PC-3 [2]; Homo sapiens, PC-3): 0.9 ± 0.4 µM
- times more potent than Doxorubicin, PC-3 (PC-3 [2]; ratio of IC50 values, PC-3): 1.4 times
- times more potent than Vinblastine, PC-3 (PC-3 [2]; ratio of IC50 values, PC-3): 8.3 times
- melting point: 229 to 230 °C
- IC50 (SKOV-3; Homo sapiens, SK-OV-3): 0.7 ± 0.8 µM
- times more potency than Doxorubicin, SKOV-3 (SKOV-3): 1.6 times
- times more potency than Vinblastine, SKOV-3 (SKOV-3): 4.6 times

Compound: N#CC1=C(N)Oc2ccc3ccc(O)cc3c2C1c1ccc([N+](=O)[O-])cc1 (stereo not drawn) [4h, 3-Amino-1-(4-nitrophenyl)-9-hydroxy-1H-benzo[f]chromene-2-carbonitrile]
- IC50 (human fetal lung (HFL-1)): 84.9 ± 0.1 µM
- IC50 (MCF-7/ADR): 19.2 ± 0.7 µM
- activity against MCF-7/ADR cell (in words) (MCF-7/ADR): inactive
- IC50 [3]: 79.4 ± 0.1 µM
- IC50 (HeLa [1]; Homo sapiens, HeLa): 0.9 ± 0.4 µM
- IC50 (PC-3 [2]; Homo sapiens, PC-3): 0.7 ± 0.4 µM
- times more potent than Vinblastine, PC-3 (PC-3 [2]; ratio of IC50 values, PC-3): 10.7 times
- melting point: 262 to 263 °C
- IC50 (SKOV-3; Homo sapiens, SK-OV-3): 0.6 ± 0.1 µM
- times more potency than Doxorubicin, SKOV-3 (SKOV-3): 1.8 times
- times more potency than Vinblastine, SKOV-3 (SKOV-3): 5.3 times

Compound: N#CC1=C(N)Oc2ccc3ccc(O)cc3c2C1c1ccc(OCc2ccccc2)cc1 (stereo not drawn) [4i, 3-Amino-1-(4-(benzyloxy)phenyl)-9-hydroxy-1H-benzo[f]chromene-2-carbonitrile]
- IC50 (HeLa [1]; Homo sapiens, HeLa): 3.3 ± 0.3 µM
- IC50 (PC-3 [2]; Homo sapiens, PC-3): 3.2 ± 1 µM
- melting point: 269 to 279 °C
- IC50 (SKOV-3; Homo sapiens, SK-OV-3): 3.5 ± 0.3 µM

Compound: N#CC1=C(N)Oc2ccc3ccc(O)cc3c2C1c1ccc2c(c1)OCO2 (stereo not drawn) [4j, 3-Amino-1-(benzo[d][1,3]dioxol-5-yl)-9-hydroxy-1H-benzo[f]chromene-2-carbonitrile]
- IC50 (HeLa [1]; Homo sapiens, HeLa): 2.5 ± 0.2 µM
- IC50 (PC-3 [2]; Homo sapiens, PC-3): 6.6 ± 0.5 µM
- melting point: 260 to 261 °C
- IC50 (SKOV-3; Homo sapiens, SK-OV-3): 3.9 ± 0.6 µM

Compound: N#CC1=C(N)Oc2ccc3ccc(O)cc3c2C1c1cccnc1 (stereo not drawn) [4k, 3-Amino-9-hydroxy-1-(pyridin-3-yl)-1H-benzo[f]chromene-2-carbonitrile]
- IC50 (HeLa [1]; Homo sapiens, HeLa): 76.4 ± 0.7 µM
- IC50 (PC-3 [2]; Homo sapiens, PC-3): 10.6 ± 0.5 µM
- melting point: 296 to 297 °C
- IC50 (SKOV-3; Homo sapiens, SK-OV-3): 6.3 ± 0.8 µM

Compound: N#CC1=C(N)Oc2ccc3ccc(O)cc3c2C1c1ccncc1 (stereo not drawn) [4l, 3-Amino-9-hydroxy-1-(pyridin-4-yl)-1H-benzo[f]chromene-2-carbonitrile]
- IC50 (HeLa [1]; Homo sapiens, HeLa): 11.5 ± 0.9 µM
- IC50 (PC-3 [2]; Homo sapiens, PC-3): 17.7 ± 0.7 µM
- melting point: 294 to 295 °C
- IC50 (SKOV-3; Homo sapiens, SK-OV-3): 5.1 ± 0.8 µM

Compound: CC[C@]1(O)C[C@@H]2CN(CCc3c([nH]c4ccccc34)[C@@](C(=O)OC)(c3cc4c(cc3OC)N(C)[C@H]3[C@@](O)(C(=O)OC)[C@H](OC(C)=O)[C@]5(CC)C=CCN6CC[C@]43[C@@H]65)C2)C1 [Vinblastine, reference compound]
- IC50 (HeLa [1]): 5.7 ± 1.1 µM
- IC50 (PC-3 [2]): 7.5 ± 1.3 µM
- IC50 (SKOV-3): 3.2 ± 1.2 µM

Compound: N#CC1=C(N)Oc2ccc3ccc(Br)cc3c2C1c1cccc(Cl)c1 (stereo not drawn) [compound 1]
- IC50 (MCF-7): 45.8 µM
- IC50 (HepG-2): 0.77 µM
- IC50 (HCT-116): 1.36 µM

Compound: N#CC1=C(N)Oc2ccc3ccc(Br)cc3c2C1c1ccc(Cl)cc1 (stereo not drawn) [compound 2]
- IC50 (MCF-7): 9.63 µM
- IC50 (HepG-2): 1.67 µM
- IC50 (HCT-116): 0.8 µM

Compound: N#CC1=C(N)Oc2ccc3ccc(Br)cc3c2C1c1cccc(Cl)c1Cl (stereo not drawn) [compound 3]
- IC50 (MCF-7): 0.49 µM
- IC50 (HepG-2): 7.59 µM
- IC50 (HCT-116): 0.64 µM

Compound: N#CC1=C(N)Oc2ccc3ccc(Br)cc3c2C1c1ccc(Cl)c(Cl)c1 (stereo not drawn) [compound 4]
- IC50 (MCF-7): 7.61 µM
- IC50 (HepG-2): 0.47 µM
- IC50 (HCT-116): 25 µM

Compound: COc1c(Br)cc(Br)cc1C1C(C#N)=C(N)Oc2ccc3ccc(Br)cc3c21 (stereo not drawn) [compound 5]
- IC50 (MCF-7): 3.67 µM
- IC50 (HepG-2): 0.71 µM
- IC50 (HCT-116): 0.58 µM

Compound: COc1ccc2ccc3c(c2c1)C(c1ccc(Br)cc1)C(C#N)=C(N)O3 (stereo not drawn) [compound 6]
- IC50 (MDA-MB-231): 7.8 µM
- IC50 (HeLa [4]): 11.6 µM
- IC50 (MIA PaCa-2): 6.8 µM
- IC50 (PC-3 [5]): 13.6 µM
- IC50 (A549): 12.7 µM
- IC50 (RPMI 7951): 5.9 µM

Compound: COc1ccc2ccc3c(c2c1)C(c1ccc(I)cc1)C(C#N)=C(N)O3 (stereo not drawn) [compound 7]
- IC50 (MDA-MB-231): 8.9 µM
- IC50 (HeLa [4]): 12.1 µM
- IC50 (MIA PaCa-2): 6.2 µM
- IC50 (PC-3 [5]): 12.9 µM
- IC50 (A549): 13.1 µM
- IC50 (RPMI 7951): 6.5 µM

Compound: COc1ccc2ccc3c(c2c1)C(c1ccc(Cl)cc1Cl)C(C#N)=C(N)O3 (stereo not drawn) [compound 8]
- IC50 (MDA-MB-231): 7.1 µM
- IC50 (HeLa [4]): 7.6 µM
- IC50 (MIA PaCa-2): 6 µM
- IC50 (PC-3 [5]): 8.7 µM
- IC50 (A549): 6.8 µM
- IC50 (RPMI 7951): 5.3 µM

Compound: COc1ccc2ccc3c(c2c1)C(c1cc(Cl)ccc1Cl)C(C#N)=C(N)O3 (stereo not drawn) [compound 9]
- IC50 (MDA-MB-231): 8.1 µM
- IC50 (HeLa [4]): 13.2 µM
- IC50 (MIA PaCa-2): 6.8 µM
- IC50 (PC-3 [5]): 11.5 µM
- IC50 (A549): 8.5 µM
- IC50 (RPMI 7951): 5.7 µM

Compound: COc1ccc2ccc3c(c2c1)C(c1ccc(Cl)c(Cl)c1)C(C#N)=C(N)O3 (stereo not drawn) [compound 10]
- IC50 (MDA-MB-231): 8.4 µM
- IC50 (HeLa [4]): 12.9 µM
- IC50 (MIA PaCa-2): 6.2 µM
- IC50 (PC-3 [5]): 14.6 µM
- IC50 (A549): 13.6 µM
- IC50 (RPMI 7951): 5.1 µM
